pIC50: −log10 of the molar value. Values belong to the molecule of their own block, whether it stands above or below them.
Assays:
Format in all cases: functional, cell-based
[1] = test system: Jurkat; assay: Antiproliferative activity against human Jurkat cells assessed as cell viability after 72 hrs by MTT assay
[2] = test system: MCF7; assay: Antiproliferative activity against human MCF7 cells assessed as cell viability after 72 hrs by MTT assay; conditions: MCF7, 72 h
[3] = test system: HeLa; assay: Antiproliferative activity against human HeLa cells assessed as cell viability after 72 hrs by MTT assay
[4] = test system: A549; assay: Antiproliferative activity against human A549 cells assessed as cell viability after 72 hrs by MTT assay; conditions: A549, 72 h
[5] = test system: MDA-MB-231; assay: Antiproliferative activity against human MDA-MB-231 cells assessed as cell viability after 72 hrs by MTT assay; conditions: MDA-MB-231, 72 h
[6] = test system: CCRF-CEM; assay: Antiproliferative activity against human CCRF-CEM cells assessed as cell viability after 72 hrs by MTT assay

Compound: c1ccc2c3c([nH]c2c1)SC(N1CCOCC1)=NC3
- pIC50 [1]: 5.06
- pIC50 [2]: 4.26
- pIC50 [3]: 4.14
- pIC50 [4]: 4.20
- pIC50 [5]: 4.48
- pIC50 [6]: 5.23

Compound: CN(C1=NCc2c([nH]c3ccccc23)S1)c1ccccc1
- pIC50 [1]: 4.12
- pIC50 [2]: 4.02
- pIC50 [3]: 4.14
- pIC50 [4]: 4.04
- pIC50 [5]: 4.37
- pIC50 [6]: 4.55

Compound: CNC1=NCc2c([nH]c3ccccc23)S1
- pIC50 [1]: 5.28
- pIC50 [2]: 4.36
- pIC50 [3]: 4.17
- pIC50 [4]: 4.36
- pIC50 [5]: 4.46
- pIC50 [6]: 5.33

Compound: c1ccc2c3c([nH]c2c1)SC(NC1CCCCC1)=NC3
- pIC50 [1]: 5.28
- pIC50 [2]: 4.19
- pIC50 [3]: 4.19
- pIC50 [4]: 4.26
- pIC50 [5]: 4.51
- pIC50 [6]: 5.41

Compound: c1ccc2c3c([nH]c2c1)SC(N1CCCCC1)=NC3
- pIC50 [1]: 5.14
- pIC50 [2]: 4.43
- pIC50 [3]: 4.39
- pIC50 [4]: 4.37
- pIC50 [5]: 4.45
- pIC50 [6]: 5.18

Compound: CC(C)(C)OC(=O)n1cc(CNC(=S)Nc2cc(C(F)(F)F)cc(C(F)(F)F)c2)c2ccccc21
- pIC50 [1]: 5.44
- pIC50 [2]: 5.46
- pIC50 [3]: 5.18
- pIC50 [4]: 5.44
- pIC50 [5]: 5.39
- pIC50 [6]: 5.54

Compound: CN(C(=S)NCc1cn(C(=O)OC(C)(C)C)c2ccccc12)c1ccccc1
- pIC50 [1]: < 4.00
- pIC50 [2]: < 4.00
- pIC50 [3]: < 4.00
- pIC50 [4]: < 4.00
- pIC50 [5]: < 4.00
- pIC50 [6]: < 4.00

Compound: CC(C)(C)OC(=O)n1cc(CNC(=S)NC2CCCCC2)c2ccccc21
- pIC50 [1]: 4.96
- pIC50 [2]: 4.67
- pIC50 [3]: 5.10
- pIC50 [4]: 4.47
- pIC50 [5]: 4.43
- pIC50 [6]: 5.15

Compound: CC(C)(C)OC(=O)n1cc(CNC(=S)N2CCCCC2)c2ccccc21
- pIC50 [1]: 4.42
- pIC50 [2]: < 4.00
- pIC50 [3]: 4.43
- pIC50 [4]: 4.22
- pIC50 [5]: < 4.00
- pIC50 [6]: 4.43

Compound: CC(C)(C)OC(=O)n1cc(CNC(=S)N2CCOCC2)c2ccccc21
- pIC50 [1]: 4.02
- pIC50 [2]: < 4.00
- pIC50 [3]: 4.10
- pIC50 [4]: < 4.00
- pIC50 [5]: < 4.00
- pIC50 [6]: < 4.00

Compound: CO[C@H]1N(C(=O)OC(C)(C)C)c2ccccc2[C@@]12CN=C(Nc1ccc(C)cc1)S2 (racemic)
- pIC50 [1]: 4.59
- pIC50 [2]: 4.48
- pIC50 [3]: 4.69
- pIC50 [4]: 4.50
- pIC50 [5]: 4.45
- pIC50 [6]: 4.84

Now from value to molecule:

- pIC50 [1]: 4.75
- pIC50 [2]: 4.64
- pIC50 [3]: 4.77
- pIC50 [4]: 4.67
- pIC50 [5]: 4.67
- pIC50 [6]: 4.71
Compound: CSC(=S)NCc1cn(C(=O)OC(C)(C)C)c2ccccc12

- pIC50 [1]: 5.51
- pIC50 [2]: 6.14
- pIC50 [3]: 4.69
- pIC50 [4]: 5.18
- pIC50 [5]: 4.55
- pIC50 [6]: 4.04
Compound: CC(C)(C)OC(=O)n1cc(CNC(=S)Nc2ccccc2)c2ccccc21

- pIC50 [1]: 5.37
- pIC50 [2]: 5.07
- pIC50 [3]: 5.35
- pIC50 [4]: 5.17
- pIC50 [5]: 4.89
- pIC50 [6]: 5.42
Compound: CC(C)(C)OC(=O)n1cc(CNC(=S)Nc2ccc(Br)cc2)c2ccccc21

- pIC50 [1]: 4.70
- pIC50 [2]: 4.56
- pIC50 [3]: 4.97
- pIC50 [4]: 4.61
- pIC50 [5]: 4.65
- pIC50 [6]: 4.92
Compound: CC(C)(C)OC(=O)n1cc(CNC(=S)Nc2ccc(F)cc2)c2ccccc21

- pIC50 [1]: 5.38
- pIC50 [2]: 5.07
- pIC50 [3]: 5.40
- pIC50 [4]: 5.12
- pIC50 [5]: 4.77
- pIC50 [6]: 5.42
Compound: CC(C)(C)OC(=O)n1cc(CNC(=S)Nc2ccc(Cl)cc2)c2ccccc21

- pIC50 [1]: 4.52
- pIC50 [2]: 4.04
- pIC50 [3]: 4.47
- pIC50 [4]: < 4.00
- pIC50 [5]: < 4.00
- pIC50 [6]: 4.66
Compound: COc1ccc(NC(=S)NCc2cn(C(=O)OC(C)(C)C)c3ccccc23)cc1

- pIC50 [1]: 4.70
- pIC50 [2]: 4.52
- pIC50 [3]: 4.54
- pIC50 [4]: 4.50
- pIC50 [5]: 4.43
- pIC50 [6]: 4.80
Compound: Cc1ccc(NC(=S)NCc2cn(C(=O)OC(C)(C)C)c3ccccc23)cc1

- pIC50 [1]: 5.52
- pIC50 [2]: 5.03
- pIC50 [3]: 4.85
- pIC50 [4]: 4.94
- pIC50 [5]: 5.07
- pIC50 [6]: 5.42
Compound: CC(C)(C)OC(=O)n1cc(CNC(=S)Nc2ccc([N+](=O)[O-])cc2)c2ccccc21

- pIC50 [1]: 5.52
- pIC50 [2]: 5.46
- pIC50 [3]: 5.40
- pIC50 [4]: 5.40
- pIC50 [5]: 5.35
- pIC50 [6]: 5.46
Compound: CC(C)(C)OC(=O)n1cc(CNC(=S)Nc2ccc(C(F)(F)F)cc2)c2ccccc21

- pIC50 [1]: < 4.00
- pIC50 [2]: < 4.00
- pIC50 [3]: < 4.00
- pIC50 [4]: < 4.00
- pIC50 [5]: < 4.00
- pIC50 [6]: < 4.00
Compound: CNC(=S)NCc1cn(C(=O)OC(C)(C)C)c2ccccc12

Reference: ChEMBL document CHEMBL2440045, “The synthesis and anticancer activity of analogs of the indole phytoalexins brassinin, 1-methoxyspirobrassinol methyl ether and cyclobrassinin” (Bioorg Med Chem, 2013)
